Test [1] addresses Glycogen synthase kinase-3 alpha (Homo sapiens, UniProt P49840). The conditions noted are these: at 10 µM.
Test [2] deals with Mitogen-activated protein kinase kinase kinase kinase 4 (Homo sapiens, UniProt O95819). Kind of test: Selectivity interaction (SelectScreen Kinase Profiling (Thermo Fisher Scientific)) EUB0001558a MAP4K4. The conditions noted are these: at 1 µM.
The target in test [3] is T1, Membrane-associated tyrosine- and threonine-specific cdc2-inhibitory kinase (Homo sapiens) (UniProt Q99640).
T1 sequence (whole entry): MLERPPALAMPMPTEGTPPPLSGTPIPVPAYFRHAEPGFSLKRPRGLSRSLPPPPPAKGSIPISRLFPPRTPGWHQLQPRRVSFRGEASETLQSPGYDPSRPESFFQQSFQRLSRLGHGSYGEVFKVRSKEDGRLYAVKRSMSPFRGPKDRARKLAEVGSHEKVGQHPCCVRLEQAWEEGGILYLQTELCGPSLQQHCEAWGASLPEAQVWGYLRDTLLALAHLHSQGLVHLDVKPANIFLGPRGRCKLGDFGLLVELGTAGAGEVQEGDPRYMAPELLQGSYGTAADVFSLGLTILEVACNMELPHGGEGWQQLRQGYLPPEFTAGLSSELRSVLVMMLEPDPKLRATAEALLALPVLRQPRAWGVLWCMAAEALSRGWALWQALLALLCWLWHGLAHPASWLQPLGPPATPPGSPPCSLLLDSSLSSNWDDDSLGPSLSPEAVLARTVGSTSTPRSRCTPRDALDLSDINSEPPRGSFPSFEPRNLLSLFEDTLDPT
The test can be described thus: Selectivity interaction (Ambit KINOMEscan and KiNATiv profiling in Jurkat cells) EUB0000090b PKMYT1. As to conditions: at 1 µM. In kind it is cell-based.

The target in test [4] is T2, Mitogen-activated protein kinase kinase kinase 19 (Homo sapiens) (UniProt Q56UN5).
T2 sequence (whole entry): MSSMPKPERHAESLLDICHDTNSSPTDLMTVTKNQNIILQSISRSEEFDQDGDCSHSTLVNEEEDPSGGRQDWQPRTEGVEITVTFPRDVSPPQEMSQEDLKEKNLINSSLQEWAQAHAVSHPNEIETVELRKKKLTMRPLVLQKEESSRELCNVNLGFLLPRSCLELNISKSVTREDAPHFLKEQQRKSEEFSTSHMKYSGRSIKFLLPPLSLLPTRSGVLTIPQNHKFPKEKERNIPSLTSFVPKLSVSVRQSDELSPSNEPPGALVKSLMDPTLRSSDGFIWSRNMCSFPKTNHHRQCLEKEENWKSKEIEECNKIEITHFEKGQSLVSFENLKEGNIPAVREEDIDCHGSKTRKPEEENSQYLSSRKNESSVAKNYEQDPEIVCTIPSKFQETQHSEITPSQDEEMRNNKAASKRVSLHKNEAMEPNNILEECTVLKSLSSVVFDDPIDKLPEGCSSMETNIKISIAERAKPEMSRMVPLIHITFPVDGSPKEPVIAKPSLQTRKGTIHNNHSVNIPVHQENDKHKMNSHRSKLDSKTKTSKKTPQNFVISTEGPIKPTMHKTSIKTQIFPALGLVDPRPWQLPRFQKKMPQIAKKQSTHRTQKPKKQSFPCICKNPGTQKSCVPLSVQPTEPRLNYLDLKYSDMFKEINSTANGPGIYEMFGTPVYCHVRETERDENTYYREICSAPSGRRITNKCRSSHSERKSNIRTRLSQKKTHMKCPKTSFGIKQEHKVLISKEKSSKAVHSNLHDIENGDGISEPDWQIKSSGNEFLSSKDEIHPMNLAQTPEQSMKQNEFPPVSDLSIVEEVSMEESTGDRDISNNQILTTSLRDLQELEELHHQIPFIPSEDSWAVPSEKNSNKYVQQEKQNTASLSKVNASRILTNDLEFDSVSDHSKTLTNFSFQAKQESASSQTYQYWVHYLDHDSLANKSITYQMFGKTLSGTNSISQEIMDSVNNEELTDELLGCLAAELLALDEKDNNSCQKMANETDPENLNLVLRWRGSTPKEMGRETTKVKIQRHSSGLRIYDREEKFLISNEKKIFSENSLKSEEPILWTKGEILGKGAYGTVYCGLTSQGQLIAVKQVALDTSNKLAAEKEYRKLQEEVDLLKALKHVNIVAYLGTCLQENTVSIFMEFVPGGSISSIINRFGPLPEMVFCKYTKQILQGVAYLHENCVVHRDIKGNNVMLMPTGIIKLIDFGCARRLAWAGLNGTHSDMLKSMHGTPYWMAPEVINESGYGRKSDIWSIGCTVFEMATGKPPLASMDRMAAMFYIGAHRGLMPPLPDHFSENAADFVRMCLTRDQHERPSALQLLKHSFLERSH
The test can be described thus: Selectivity interaction (KinomeScan (DiscoverX)) EUB0000045b MAP3K19.

Test [5] concerns the target T3, Atypical kinase COQ8B, mitochondrial (Homo sapiens) (UniProt Q96D53).
T3 sequence (whole entry): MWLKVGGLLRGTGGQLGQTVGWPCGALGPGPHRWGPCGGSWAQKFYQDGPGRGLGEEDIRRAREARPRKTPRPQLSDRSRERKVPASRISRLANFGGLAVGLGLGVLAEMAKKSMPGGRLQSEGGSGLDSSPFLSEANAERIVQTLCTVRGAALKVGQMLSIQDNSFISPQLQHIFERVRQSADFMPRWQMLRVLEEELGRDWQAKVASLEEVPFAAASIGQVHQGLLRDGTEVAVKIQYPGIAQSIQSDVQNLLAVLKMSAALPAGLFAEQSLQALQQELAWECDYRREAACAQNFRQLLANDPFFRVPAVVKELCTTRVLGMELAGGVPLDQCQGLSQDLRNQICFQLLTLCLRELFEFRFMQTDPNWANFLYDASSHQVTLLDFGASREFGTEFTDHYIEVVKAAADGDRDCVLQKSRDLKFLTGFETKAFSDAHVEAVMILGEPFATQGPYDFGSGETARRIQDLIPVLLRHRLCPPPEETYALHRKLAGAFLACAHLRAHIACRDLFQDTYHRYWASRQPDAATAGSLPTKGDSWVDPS
The test can be described thus: Selectivity interaction (KinomeScan (DiscoverX)) EUB0000607a ADCK4. The conditions noted are these: at 10 µM.

Test [6] deals with Ribosomal protein S6 kinase alpha-1 (Homo sapiens, UniProt Q15418). Kind of test: Selectivity interaction (ActivX KiNativ screen (kinase selectivity in THP-1 cell lysates)) EUB0000639a RPS6KA1. As to conditions: lysate, at 1 µM. It counts as subcellular.
For test [7], the target named is Mitogen-activated protein kinase kinase kinase 20 (Homo sapiens) (UniProt Q9NYL2). The test can be described thus: Selectivity interaction (ActivX KiNativ screen (ex vivo kinase selectivity in human PBMCs)) EUB0001619a MAP3K20. As to conditions: PBMC, at 1 µM. It counts as cell-based.
Mitogen-activated protein kinase kinase kinase 20 (Homo sapiens), sequence (Q9NYL2 2-800 limits assumed): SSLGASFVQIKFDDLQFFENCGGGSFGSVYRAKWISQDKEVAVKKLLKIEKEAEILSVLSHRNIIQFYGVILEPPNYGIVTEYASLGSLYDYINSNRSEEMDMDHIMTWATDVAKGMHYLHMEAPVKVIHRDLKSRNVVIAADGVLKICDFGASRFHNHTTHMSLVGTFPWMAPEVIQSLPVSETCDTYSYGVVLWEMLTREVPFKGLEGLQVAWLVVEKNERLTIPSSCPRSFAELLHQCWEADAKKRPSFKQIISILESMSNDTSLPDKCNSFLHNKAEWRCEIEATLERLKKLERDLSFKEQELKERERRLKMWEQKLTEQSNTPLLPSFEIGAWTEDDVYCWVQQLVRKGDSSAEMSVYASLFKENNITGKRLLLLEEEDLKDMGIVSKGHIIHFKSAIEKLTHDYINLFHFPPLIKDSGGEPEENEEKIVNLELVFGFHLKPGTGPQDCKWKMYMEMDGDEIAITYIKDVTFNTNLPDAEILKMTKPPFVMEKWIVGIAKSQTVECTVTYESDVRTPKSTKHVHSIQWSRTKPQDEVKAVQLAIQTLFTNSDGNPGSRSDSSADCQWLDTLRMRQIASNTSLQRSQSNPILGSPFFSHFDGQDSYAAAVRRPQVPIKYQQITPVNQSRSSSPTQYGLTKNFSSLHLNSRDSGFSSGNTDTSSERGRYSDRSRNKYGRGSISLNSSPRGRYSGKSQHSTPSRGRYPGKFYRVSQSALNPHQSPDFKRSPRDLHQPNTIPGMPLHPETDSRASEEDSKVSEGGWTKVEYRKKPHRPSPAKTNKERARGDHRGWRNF

Mitogen-activated protein kinase kinase kinase kinase 4, sequence (O95819 2-1239 limits assumed): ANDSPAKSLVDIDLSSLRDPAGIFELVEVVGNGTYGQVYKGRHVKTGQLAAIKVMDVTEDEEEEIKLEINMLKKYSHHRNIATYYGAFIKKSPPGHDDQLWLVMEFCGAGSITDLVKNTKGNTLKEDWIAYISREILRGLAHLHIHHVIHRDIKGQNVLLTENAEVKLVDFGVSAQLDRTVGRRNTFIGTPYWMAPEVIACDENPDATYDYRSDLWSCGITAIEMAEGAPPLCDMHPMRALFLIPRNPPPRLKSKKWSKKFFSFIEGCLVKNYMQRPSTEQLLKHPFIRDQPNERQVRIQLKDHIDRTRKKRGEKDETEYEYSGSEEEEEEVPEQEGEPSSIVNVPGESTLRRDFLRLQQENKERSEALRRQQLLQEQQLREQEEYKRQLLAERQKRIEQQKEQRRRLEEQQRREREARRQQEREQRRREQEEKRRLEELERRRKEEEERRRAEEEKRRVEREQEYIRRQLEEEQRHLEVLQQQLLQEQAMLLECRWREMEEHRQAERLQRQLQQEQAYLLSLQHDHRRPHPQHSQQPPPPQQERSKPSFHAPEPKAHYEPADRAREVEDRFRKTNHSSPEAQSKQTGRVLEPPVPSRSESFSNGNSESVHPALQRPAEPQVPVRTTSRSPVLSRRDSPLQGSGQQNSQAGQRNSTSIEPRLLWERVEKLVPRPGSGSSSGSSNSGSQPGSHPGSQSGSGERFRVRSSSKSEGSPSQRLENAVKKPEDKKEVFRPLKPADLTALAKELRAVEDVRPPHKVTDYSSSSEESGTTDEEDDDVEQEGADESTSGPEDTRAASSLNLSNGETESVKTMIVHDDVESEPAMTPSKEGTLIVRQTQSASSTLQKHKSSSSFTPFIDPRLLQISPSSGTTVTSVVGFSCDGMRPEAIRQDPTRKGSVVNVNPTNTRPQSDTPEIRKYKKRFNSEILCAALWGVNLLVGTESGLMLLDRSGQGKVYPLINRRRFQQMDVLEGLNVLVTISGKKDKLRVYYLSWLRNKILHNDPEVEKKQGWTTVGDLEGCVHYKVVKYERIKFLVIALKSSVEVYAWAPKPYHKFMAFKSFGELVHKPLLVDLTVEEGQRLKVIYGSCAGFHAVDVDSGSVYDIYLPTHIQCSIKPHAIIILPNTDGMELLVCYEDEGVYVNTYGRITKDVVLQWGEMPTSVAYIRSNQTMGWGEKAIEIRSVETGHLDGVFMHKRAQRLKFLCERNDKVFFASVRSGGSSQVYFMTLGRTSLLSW
Glycogen synthase kinase-3 alpha, sequence (P49840 2-483 limits assumed): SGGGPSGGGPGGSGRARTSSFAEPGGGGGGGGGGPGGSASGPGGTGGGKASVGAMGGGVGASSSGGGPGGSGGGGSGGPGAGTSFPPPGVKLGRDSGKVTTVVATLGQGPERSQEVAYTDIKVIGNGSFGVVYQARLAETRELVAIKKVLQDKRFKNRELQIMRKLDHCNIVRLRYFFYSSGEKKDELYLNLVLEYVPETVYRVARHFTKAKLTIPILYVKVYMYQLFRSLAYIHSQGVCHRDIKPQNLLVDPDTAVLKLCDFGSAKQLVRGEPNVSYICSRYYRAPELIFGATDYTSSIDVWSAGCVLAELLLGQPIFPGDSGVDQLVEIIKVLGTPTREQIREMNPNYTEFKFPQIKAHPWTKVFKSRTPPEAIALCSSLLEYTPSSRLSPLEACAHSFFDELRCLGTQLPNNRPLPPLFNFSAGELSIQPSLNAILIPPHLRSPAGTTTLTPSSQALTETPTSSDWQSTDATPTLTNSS
Ribosomal protein S6 kinase alpha-1, sequence (Q15418 whole entry): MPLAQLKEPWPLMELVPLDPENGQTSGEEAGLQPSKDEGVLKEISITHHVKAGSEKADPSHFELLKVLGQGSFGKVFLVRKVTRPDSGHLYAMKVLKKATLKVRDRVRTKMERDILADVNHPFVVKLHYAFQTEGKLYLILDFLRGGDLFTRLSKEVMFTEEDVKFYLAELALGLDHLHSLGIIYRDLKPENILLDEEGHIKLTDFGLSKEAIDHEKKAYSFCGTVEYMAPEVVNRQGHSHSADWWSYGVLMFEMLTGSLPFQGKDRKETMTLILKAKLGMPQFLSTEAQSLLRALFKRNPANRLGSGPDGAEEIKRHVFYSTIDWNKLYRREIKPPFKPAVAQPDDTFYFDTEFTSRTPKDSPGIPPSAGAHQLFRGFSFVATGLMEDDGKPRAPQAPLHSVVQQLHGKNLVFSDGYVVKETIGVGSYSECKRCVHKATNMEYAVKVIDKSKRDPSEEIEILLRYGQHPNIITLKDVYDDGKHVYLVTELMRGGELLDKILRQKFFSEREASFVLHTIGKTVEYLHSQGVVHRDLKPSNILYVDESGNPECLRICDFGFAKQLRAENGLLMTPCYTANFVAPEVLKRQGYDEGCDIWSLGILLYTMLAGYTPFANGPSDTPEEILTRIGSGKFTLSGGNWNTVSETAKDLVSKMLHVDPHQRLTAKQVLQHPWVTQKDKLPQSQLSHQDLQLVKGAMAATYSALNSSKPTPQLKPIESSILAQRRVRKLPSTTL

`Cc1cc([C@@H](C)Nc2ccccc2C(=O)O)c2nc(N3CCOCC3)cc(=O)n2c1` [AZD-6482] came in with a % of control in test [1] of 100%.

On to `CC(C)(O)[C@H](F)CN1Cc2cc(NC(=O)c3cnn4cccnc34)c(N3CCOCC3)cc2C1=O`, for which the % of inhibition in test [2] worked out at 86.3%. Take `CN(C)C/C=C/C(=O)Nc1ccc(C(=O)N2CCCC(Nc3ncc(Cl)c(-c4c[nH]c5ccccc45)n3)C2)cc1` (stereo not drawn): the % of control in test [3] stood at 93%. For `C=CC(=O)Nc1cc(-n2c(=O)ccc3cnc4ccc(-c5ccc(NS(C)(=O)=O)cc5)cc4c32)ccc1C`, the % of control in test [4] (at 1 µM) is 100%; in test [4] (at 10 µM), 65%. The compound `CNC(=O)Nc1ccc(-c2nc(N3CC4CCC(C3)O4)c3cnn(C4CCC5(CC4)OCCO5)c3n2)cc1` came in with a % of control in test [5] of 100%. For `CC[C@@H]1[C@H](F)C(=O)N[C@@H]1COc1nccc2cc(C(N)=O)c(OC)cc12` [ZIMLOVISERTIB], in test [6], the % of inhibition worked out at 8.6%. As to `N#Cc1cccc(-c2c[nH]c3ncnc(N4CCOCC4)c23)c1`, the % of inhibition in test [7] was -42%.

Values taken from ChEMBL document CHEMBL5465560, “Selectivity Literature for EUbOPEN Chemogenomic Library” (2024).
